In patent publication US20260297060A1, “COMPOUNDS FOR THE DEGRADATION OF MUTANT BRAF” (C4 THERAPEUTICS, INC., priority 2023, published 2026):

Target: T1, human bile salt export pump (BSEP) efflux transporter (Homo sapiens, UniProt O95342)
T1 construct: purchased SOLVO Biotechnology Charles River Laboratories, Szeged, Hungary; host or cells: HEK293 (inside out membrane vesicles)
Assay: BSEP Vesicular Transport Inhibition Assay (IC50 determination)
Format: biochemical
Settings: human BSEP (HEK293) vesicles, taurocholate 0.2 μM, 4 mM Mg-ATP, 10 concentrations, 1 replicate
Protocol: The vesicular transport (VT) assays were performed using inside out membrane vesicles derived from HEK293 cells expressing the specified human bile salt export pump (BSEP) efflux transporter. The membrane vesicles were procured from SOLVO Biotechnology Charles River Laboratories, Szeged, Hungary.
The principle of the assay relies on measuring the accumulation of substrate into inside out vesicles containing the efflux transporter. By utilizing inside out vesicles, the ATP-dependent transport of substrate is directed into the vesicular lumen, where low permeability compounds are then essentially trapped.
For the IC50 screen inhibition assay, 10 concentrations of each compound were tested in the presence of ATP (active transport) in 1 replicate.
The solvent control (DMSO) was tested in the presence of ATP (active transport) and in the presence of AMP (background) in 8 replicates.
Vesicular transport inhibition assays were performed using the specific parameters for each transporter inhibition assay described in Table 53.
Table 54 specifies treatment groups and concentration of compounds, that were examined in the vesicular transport inhibition assay. Detailed data of IC50 screen inhibition assay are shown in Table 55 and detailed data of 1 concentration inhibition assay are shown in Table 56.
The vesicular transport inhibition assay was performed with 4 mM Mg-ATP. For the IC50 screen inhibition assay, 10 concentrations of each compound were tested in the presence of ATP in 1 replicate. For the 1 concentration inhibition assay, 1 concentration of each compound was tested in the presence of ATP (active transport) in 2 replicates. The solvent control (DMSO) was tested in the presence of 4 mM Mg-ATP (active transport) and in the presence of 4 mM AMP (background) in 8 replicates.
The BSEP membrane vesicle suspension was mixed with the ice-cold transport buffer, then the taurocholate probe substrate solution was added (Reaction mixture, 50 μL per well). The compounds were added to the reaction mixture at 1.5-times the final assay concentration. […].
Reaction mixtures and the start reagent (Mg-ATP or AMP in transport buffer) were pre-warmed separately for 15 minutes to reach the incubation temperature of 37° C. […]
The reaction was initiated by the addition of the start reagent (25 μL) to the reaction mixture (diluting the reaction mixture to the final concentration). […] After the 5-minute incubation at 37° C., the reaction was stopped by the addition of 250 μL ice-cold washing mix to each well. […]
The samples were then be transferred to a filter plate and washed with 200 μL cold washing mix5-times to remove any free compounds or taurocholate probe substrate. The amount of taurocholate probe substrate inside the filtered vesicles were determined by liquid scintillation counting. […]

T1 sequence (O95342 whole entry): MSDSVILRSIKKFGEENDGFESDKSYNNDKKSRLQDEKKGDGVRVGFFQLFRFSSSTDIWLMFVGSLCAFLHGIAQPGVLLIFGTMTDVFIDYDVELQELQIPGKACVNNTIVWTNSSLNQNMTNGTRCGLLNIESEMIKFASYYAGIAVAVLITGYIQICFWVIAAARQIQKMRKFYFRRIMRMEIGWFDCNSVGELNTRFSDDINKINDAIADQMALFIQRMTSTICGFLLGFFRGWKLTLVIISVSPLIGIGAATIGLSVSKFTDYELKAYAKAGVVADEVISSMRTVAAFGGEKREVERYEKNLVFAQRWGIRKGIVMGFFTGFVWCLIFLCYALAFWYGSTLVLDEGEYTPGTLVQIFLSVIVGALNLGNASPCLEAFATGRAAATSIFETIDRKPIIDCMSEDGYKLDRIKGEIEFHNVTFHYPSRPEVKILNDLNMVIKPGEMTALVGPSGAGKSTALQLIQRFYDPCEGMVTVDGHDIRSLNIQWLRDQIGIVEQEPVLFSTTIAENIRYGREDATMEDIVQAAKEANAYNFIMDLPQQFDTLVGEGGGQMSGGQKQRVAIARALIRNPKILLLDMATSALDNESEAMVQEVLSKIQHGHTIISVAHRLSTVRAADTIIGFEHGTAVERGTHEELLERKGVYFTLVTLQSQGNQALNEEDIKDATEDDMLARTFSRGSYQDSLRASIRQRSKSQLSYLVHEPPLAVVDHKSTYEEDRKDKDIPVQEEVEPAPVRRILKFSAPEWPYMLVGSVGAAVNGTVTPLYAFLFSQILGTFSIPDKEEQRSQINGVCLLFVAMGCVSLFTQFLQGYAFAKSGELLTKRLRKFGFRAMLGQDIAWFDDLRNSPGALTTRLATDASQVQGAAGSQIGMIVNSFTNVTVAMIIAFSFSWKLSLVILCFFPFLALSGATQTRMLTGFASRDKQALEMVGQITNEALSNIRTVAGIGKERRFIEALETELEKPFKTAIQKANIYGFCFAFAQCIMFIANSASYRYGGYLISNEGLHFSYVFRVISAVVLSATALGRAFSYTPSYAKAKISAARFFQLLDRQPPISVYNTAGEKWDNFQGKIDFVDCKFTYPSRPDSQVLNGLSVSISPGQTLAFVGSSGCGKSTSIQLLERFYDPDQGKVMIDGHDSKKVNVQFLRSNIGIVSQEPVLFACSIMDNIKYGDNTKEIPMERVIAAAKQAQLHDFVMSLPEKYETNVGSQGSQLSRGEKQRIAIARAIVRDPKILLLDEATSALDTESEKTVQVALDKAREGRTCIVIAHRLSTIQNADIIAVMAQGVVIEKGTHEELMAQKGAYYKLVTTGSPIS

Row | SMILES | BSEP Inhibition/IC50 (in nM) | BSEP Inhibition/IC50 [µM]
1 | CCN(C)S(=O)(=O)Nc1ccc(F)c(Oc2ccc3ncn(C4CC5(CCN(C6CCN(c7cc8c(cc7F)c(N7CCC(=O)NC7=O)nn8C)CC6)CC5)C4)c(=O)c3c2)c1C#N [Compound 156, 6-[2-cyano-3-[[ethyl(methyl)sulfamoyl]amino]-6-fluoro-phenoxy]-3-[7-[1-[3-(2,4-dioxohexahydropyrimidin-1-yl)-5-fluoro-1-methyl-indazol-6-yl]-4-piperidyl]-7-azaspiro[3.5]nonan-2-yl]-4-oxo-quinazoline] | >40000 | –
2 | CCN(C)S(=O)(=O)Nc1ccc(F)c(Oc2ccc3ncc([C@H]4COC5(CCN(C6CC7(C6)CN(c6cc8c(cc6F)c(N6CCC(=O)NC6=O)nn8C)C7)CC5)C4)nc3c2)c1C#N [Compound 158, (3S)-3-[7-[2-cyano-3-[[ethyl(methyl)sulfamoyl]amino]-6-fluoro-phenoxy]quinoxalin-2-yl]-8-[2-[3-(2,4-dioxohexahydropyrimidin-1-yl)-5-fluoro-1-methyl-indazol-6-yl]-2-azaspiro[3.3]heptan-6-yl]-1-oxa-8-azaspiro[4.5]decane] | – | 7.53
3 | CCN(C)S(=O)(=O)Nc1ccc(F)c(Oc2ccc3ncc(C4CC5(CCN(C6CC7(C6)CN(c6cc8c(cc6F)c(N6CCC(=O)NC6=O)nn8C)C7)CC5)C4)nc3c2)c1C#N (centres unmarked) [Compound 177, 7-[2-cyano-3-[[ethyl(methyl)sulfamoyl]amino]-6-fluoro-phenoxy]-2-[7-[2-[3-(2,4-dioxohexahydropyrimidin-1-yl)-5-fluoro-1-methyl-indazol-6-yl]-2-azaspiro[3.3]heptan-6-yl]-7-azaspiro[3.5]nonan-2-yl]quinoxaline] | – | 7.36
4 | COC1CN(S(=O)(=O)Nc2ccc(F)c(Oc3ccc4ncn([C@H]5COC6(CCN(C7CC8(C7)CN(c7cc9c(cc7F)c(N7CCC(=O)NC7=O)nn9C)C8)CC6)C5)c(=O)c4c3)c2C#N)C1 [Compound 246, N-[2-cyano-3-[3-[(3R)-8-[2-[3-(2,4-dioxohexahydropyrimidin-1-yl)-5-fluoro-1-methyl-indazol-6-yl]-2-azaspiro[3.3]heptan-6-yl]-1-oxa-8-azaspiro[4.5]decan-3-yl]-4-oxo-quinazolin-6-yl]oxy-4-fluoro-phenyl]-3-methoxy-azetidine-1-sulfonamide] | – | 8.79
5 | Cn1nc(N2CCC(=O)NC2=O)c2cc(F)c(N3CC4(CC(N5CCC6(CC5)CC(n5cnc7ccc(Oc8c(F)ccc(NS(=O)(=O)C9CCCC9)c8C#N)cc7c5=O)C6)C4)C3)cc21 [Compound 250, N-[2-cyano-3-[3-[7-[2-[3-(2,4-dioxohexahydropyrimidin-1-yl)-5-fluoro-1-methyl-indazol-6-yl]-2-azaspiro[3.3]heptan-6-yl]-7-azaspiro[3.5]nonan-2-yl]-4-oxo-quinazolin-6-yl]oxy-4-fluoro-phenyl]cyclopentanesulfonamide] | – | 8.45
6 | Cn1nc(N2CCC(=O)NC2=O)c2cc(F)c(N3CC4(CC(N5CCC6(CC5)C[C@@H](n5cnc7ccc(Oc8c(F)ccc(NS(=O)(=O)N9CC%10(CCC%10)C9)c8C#N)cc7c5=O)CO6)C4)C3)cc21 [Compound 254, N-[2-cyano-3-[3-[(3R)-8-[2-[3-(2,4-dioxohexahydropyrimidin-1-yl)-5-fluoro-1-methyl-indazol-6-yl]-2-azaspiro[3.3]heptan-6-yl]-1-oxa-8-azaspiro[4.5]decan-3-yl]-4-oxo-quinazolin-6-yl]oxy-4-fluoro-phenyl]-2-azaspiro[3.3]heptane-2-sulfonamide] | – | 1.74
7 | Cn1nc(N2CCC(=O)NC2=O)c2cc(F)c(N3CC4(CC(N5CCC6(CC5)CC(n5cnc7ccc(Oc8c(F)ccc(NS(=O)(=O)C9CCC9)c8C#N)cc7c5=O)C6)C4)C3)cc21 [Compound 259, N-[2-cyano-3-[3-[7-[2-[3-(2,4-dioxohexahydropyrimidin-1-yl)-5-fluoro-1-methyl-indazol-6-yl]-2-azaspiro[3.3]heptan-6-yl]-7-azaspiro[3.5]nonan-2-yl]-4-oxo-quinazolin-6-yl]oxy-4-fluoro-phenyl]cyclobutanesulfonamide] | 12760 | –
8 | Cn1nc(N2CCC(=O)NC2=O)c2cc(F)c(N3CC4(CC(N5CCC6(CC5)CC(n5cnc7ccc(Oc8c(F)ccc(NS(=O)(=O)C9CC9)c8C#N)cc7c5=O)C6)C4)C3)cc21 [Compound 260, N-[2-cyano-3-[3-[7-[2-[3-(2,4-dioxohexahydropyrimidin-1-yl)-5-fluoro-1-methyl-indazol-6-yl]-2-azaspiro[3.3]heptan-6-yl]-7-azaspiro[3.5]nonan-2-yl]-4-oxo-quinazolin-6-yl]oxy-4-fluoro-phenyl]cyclopropanesulfonamide] | 12720 | –
9 | Cn1nc(N2CCC(=O)NC2=O)c2cc(F)c(N3CC4(CC(N5CCC6(CC5)CC(n5cnc7ccc(Oc8c(F)ccc(NS(=O)(=O)N9CC[C@@H](F)C9)c8C#N)cc7c5=O)C6)C4)C3)cc21 [Compound 261, (3R)-N-[2-cyano-3-[3-[7-[2-[3-(2,4-dioxohexahydropyrimidin-1-yl)-5-fluoro-1-methyl-indazol-6-yl]-2-azaspiro[3.3]heptan-6-yl]-7-azaspiro[3.5]nonan-2-yl]-4-oxo-quinazolin-6-yl]oxy-4-fluoro-phenyl]-3-fluoro-pyrrolidine-1-sulfonamide] | >40000 | –
10 | CC(C)S(=O)(=O)Nc1ccc(F)c(Oc2ccc3ncn(C4CC5(CCN(C6CC7(C6)CN(c6cc8c(cc6F)c(N6CCC(=O)NC6=O)nn8C)C7)CC5)C4)c(=O)c3c2)c1C#N (centres unmarked) [Compound 273, N-[2-cyano-3-[3-[7-[2-[3-(2,4-dioxohexahydropyrimidin-1-yl)-5-fluoro-1-methyl-indazol-6-yl]-2-azaspiro[3.3]heptan-6-yl]-7-azaspiro[3.5]nonan-2-yl]-4-oxo-quinazolin-6-yl]oxy-4-fluoro-phenyl]propane-2-sulfonamide] | 20580 | –
11 | Cn1nc(N2CCC(=O)NC2=O)c2cc(F)c(N3CC4(CC(N5CCC6(CC5)CC(n5cnc7ccc(Oc8c(F)ccc(NS(=O)(=O)N9C[C@H]%10C[C@H]%10C9)c8C#N)cc7c5=O)C6)C4)C3)cc21 (stereo partly drawn) [Compound 277, (1R,5S)-N-[2-cyano-3-[3-[7-[2-[3-(2,4-dioxohexahydropyrimidin-1-yl)-5-fluoro-1-methyl-indazol-6-yl]-2-azaspiro[3.3]heptan-6-yl]-7-azaspiro[3.5]nonan-2-yl]-4-oxo-quinazolin-6-yl]oxy-4-fluoro-phenyl]-3-azabicyclo[3.1.0]hexane-3-sulfonamide] | 11860 | –
